Assay results as given in article PMC8956739, “A synthetic lipopeptide targeting top-priority multidrug-resistant Gram-negative pathogens” (Nature Communications, 2022).
Where “and” joins values, the source holds several entries; their conditions need not be identical. Equal values may be shown once.

Key:
A. baumannii AB5075 [1] = assay: In vitro passaging, emergence of resistance; format: cell-based, Acinetobacter baumannii; settings: for OD600: 8 ug/mL
Description: Log-phase cultures (OD600 = 0.5, ~10^8 CFU/mL) of A. baumannii AB5075 were inoculated (1:10, v/v) in 200 μL fresh CaMHB (cation-adjusted Mueller–Hinton broth) containing 2, 8 and 16 μg/mL polymyxin B, colistin, F287, and F365 in a 96-well microplate with 4 biological replicates. The cultures were incubated at 37 °C for 12 h before the next dilution (1:10, v/v) with fresh CaMHB. Successive subculturing was conducted for 7 days.

P. aeruginosa ATCC 27853 = assay: Neutropenic mouse bloodstream infection model; format: in vivo; settings: single IV dose 4 mg/kg; for Δlog10 CFU/mL blood (mean): treated minus control, mean of replicates
Method in brief: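 Female Swiss mice made neutropenic with cyclophosphamide (150 mg/kg day −4, 100 mg/kg day −1), infected IV with 50 µL of 4 × 10^8 CFU/mL. Lipopeptide 4 mg/kg (free base) IV at 2 h post-inoculation, n = 3. Efficacy = Δlog10 CFU/mL blood versus saline at 4 h post-dose.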

A. baumannii AB5075 [2] = assay: Transcriptomic analysis (RNA-Seq) of bacteria; format: cell-based, Acinetobacter baumannii; settings: for logFC (Differential gene expression for all genes), Geneid ABUW_RS00005 / logFC (Differential gene expression for all genes), Geneid ABUW_RS00020 / logFC (Fold change), gene ABUW_RS00010 / logFC (Fold change), gene ABUW_RS00030 / logFC (Fold change), gene ABUW_RS00035 / logFC (Fold change), gene recF (ABUW_RS00015) / 4h_1h logFC (Differential gene expression for all genes), Geneid ABUW_RS00005 / 4h_1h logFC (Differential gene expression for all genes), Geneid ABUW_RS00010 / 4h_1h logFC (Differential gene expression for all genes), Geneid ABUW_RS00015 / 4h_1h logFC (Differential gene expression for all genes), Geneid ABUW_RS00020: RNA-Seq A. baumannii AB5075; for log2FC, gene ABUW_RS01945 (acyl-CoA thioesterase II) / log2FC, gene ABUW_RS02545 (acyl-CoA thioesterase) / log2FC, gene ABUW_RS05045 (acyl-CoA thioesterase) / log2FC, gene ABUW_RS17575 (acyl-CoA thioesterase): pathway Fatty Acid and Lipid Degradation; for 4h_1h logFC (Differential gene expression for all genes), Geneid ABUW_RS00005 / 4h_1h logFC (Differential gene expression for all genes), Geneid ABUW_RS00010 / 4h_1h logFC (Differential gene expression for all genes), Geneid ABUW_RS00015 / 4h_1h logFC (Differential gene expression for all genes), Geneid ABUW_RS00020: 4h vs 1h
Swiss mice = assay: Acute toxicity in mice (maximum tolerated dose, IV bolus); format: in vivo, mouse
Method in brief: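 Female Swiss mice (7 weeks, 22–28 g) given single IV tail-vein bolus of lipopeptide in 0.9% saline, dosed as mg/kg free base. Clinical toxicity signs monitored over 0–24 h, most frequently in first 2 h.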

Colistin [reference compound]
regrowth observed from day (A. baumannii AB5075 [1]): 4 days
OD600 (A. baumannii AB5075 [1]; time 0 h, passage 0, replicates rep1-rep4, raw OD600 (blank OD600 0.125333)): 0.152 and 0.143 and 0.147 and 0.146
OD600 (A. baumannii AB5075 [1]; time 12 h, passage 1, replicates rep1-rep4, raw OD600 (blank OD600 0.114667)): 0.136 and 0.134 and 0.13
OD600 (A. baumannii AB5075 [1]; time 24 h, passage 2, replicates rep1-rep4, raw OD600 (blank OD600 0.0956667)): 0.095 and 0.089 and 0.087 and 0.091
OD600 (A. baumannii AB5075 [1]; time 36 h, passage 3, replicates rep1-rep4, raw OD600 (blank OD600 0.088)): 0.088 and 0.087 and 0.085 and 0.091
OD600 (A. baumannii AB5075 [1]; time 48 h, passage 4, replicates rep1-rep4, raw OD600 (blank OD600 0.104667)): 0.095 and 0.093
OD600 (A. baumannii AB5075 [1]; time 60 h, passage 5, replicates rep1-rep4, raw OD600 (blank OD600 0.122333)): 0.125 and 0.117 and 0.115 and 0.107
OD600 (A. baumannii AB5075 [1]; time 72 h, passage 6, replicates rep1-rep4, raw OD600 (blank OD600 0.095)): 0.14 and 0.126 and 0.15
OD600 (A. baumannii AB5075 [1]; time 84 h, passage 7, replicates rep1-rep4, raw OD600 (blank OD600 0.091)): 0.196 and 0.173 and 0.191 and 0.238
OD600 (A. baumannii AB5075 [1]; time 96 h, passage 8, replicates rep1-rep4, raw OD600 (blank OD600 0.0953333)): 0.224 and 0.238 and 0.275 and 0.393
OD600 (A. baumannii AB5075 [1]; time 108 h, passage 9, replicates rep1-rep4, raw OD600 (blank OD600 0.100667)): 0.309 and 0.315 and 0.31 and 0.392
OD600 (A. baumannii AB5075 [1]; time 120 h, passage 10, replicates rep1-rep4, raw OD600 (blank OD600 0.0983333)): 0.387 and 0.364 and 0.444 and 0.49
OD600 (A. baumannii AB5075 [1]; time 132 h, passage 11, replicates rep1-rep4, raw OD600 (blank OD600 0.0843333)): 0.344 and 0.355 and 0.395 and 0.414
OD600 (A. baumannii AB5075 [1]; time 144 h, passage 12, replicates rep1-rep4, raw OD600 (blank OD600 0.091)): 0.477 and 0.464 and 0.465 and 0.416
OD600 (A. baumannii AB5075 [1]; time 156 h, passage 13, replicates rep1-rep4, raw OD600 (blank OD600 0.129)): 0.339 and 0.382 and 0.394
OD600 (A. baumannii AB5075 [1]; time 168 h, passage 14, replicates rep1-rep4, raw OD600 (blank OD600 0.101)): 0.344 and 0.379 and 0.374 and 0.394
time to emergence of resistance (A. baumannii AB5075 [1]; 4× MIC, 7-day passaging): ≤ 3 days
growth over 7 days (A. baumannii AB5075 [1]; 32× MIC): No growth
Log10 CFU/mL blood at 4 h, Mean (P. aeruginosa ATCC 27853; 4 h): 5.05 Log10 CFU/mL blood
Δlog10 CFU/mL blood (mean) (P. aeruginosa ATCC 27853; 4 h, 4 mg/kg): -2.39 log10 CFU/mL blood
Δlog10 CFU/mL blood (mean) (P. aeruginosa ATCC 27853; 4 h, listed as COL, 4 mg/kg): −2.39 log10 CFU/mL blood
Log10 CFU/mL blood at 4 h, single mouse (P. aeruginosa ATCC 27853; 4 h, 4 mg/kg): 5.25 Log10 CFU/mL blood and 4.89 Log10 CFU/mL blood and 5.02 Log10 CFU/mL blood
Delta Log10 CFU/mL blood at 4 h, single mouse (P. aeruginosa ATCC 27853; treated mouse minus mean of vehicle mice, 4 mg/kg): -2.19 Log10 CFU/mL blood and -2.56 Log10 CFU/mL blood and -2.42 Log10 CFU/mL blood
logFC (Differential gene expression for all genes), Geneid ABUW_RS00005 (A. baumannii AB5075 [2]; H vs Cont, 1h): -0.1415
logFC (Differential gene expression for all genes), Geneid ABUW_RS00020 (A. baumannii AB5075 [2]; H vs Cont, 1h): 0.3148
logFC (Fold change), gene ABUW_RS00010 (A. baumannii AB5075 [2]; H vs Cont, 1h): 0.4448
logFC (Fold change), gene ABUW_RS00030 (A. baumannii AB5075 [2]; H vs Cont, 1h): -0.4924
logFC (Fold change), gene ABUW_RS00035 (A. baumannii AB5075 [2]; H vs Cont, 1h): 1.135
logFC (Fold change), gene recF (ABUW_RS00015) (A. baumannii AB5075 [2]; H vs Cont, 1h): -0.2294
log2FC, gene ABUW_RS01945 (acyl-CoA thioesterase II) (A. baumannii AB5075 [2]; H vs Cont, 1h): 0.3504
log2FC, gene ABUW_RS02545 (acyl-CoA thioesterase) (A. baumannii AB5075 [2]; H vs Cont, 1h): 1.4185
log2FC, gene ABUW_RS05045 (acyl-CoA thioesterase) (A. baumannii AB5075 [2]; H vs Cont, 1h): 0.5564
log2FC, gene ABUW_RS17575 (acyl-CoA thioesterase) (A. baumannii AB5075 [2]; H vs Cont, 1h): -1.353
logFC (Differential gene expression for all genes), Geneid ABUW_RS00005 (A. baumannii AB5075 [2]; H vs Cont, 4h): -0.09217
logFC (Differential gene expression for all genes), Geneid ABUW_RS00020 (A. baumannii AB5075 [2]; H vs Cont, 4h): -0.1513
logFC (Fold change), gene ABUW_RS00010 (A. baumannii AB5075 [2]; H vs Cont, 4h): 1.069
logFC (Fold change), gene ABUW_RS00030 (A. baumannii AB5075 [2]; H vs Cont, 4h): -0.5349
logFC (Fold change), gene ABUW_RS00035 (A. baumannii AB5075 [2]; H vs Cont, 4h): 1.256
logFC (Fold change), gene recF (ABUW_RS00015) (A. baumannii AB5075 [2]; H vs Cont, 4h): -1.096
log2FC, gene ABUW_RS01945 (acyl-CoA thioesterase II) (A. baumannii AB5075 [2]; H vs Cont, 4h): -0.7138
log2FC, gene ABUW_RS02545 (acyl-CoA thioesterase) (A. baumannii AB5075 [2]; H vs Cont, 4h): 0.6589
log2FC, gene ABUW_RS05045 (acyl-CoA thioesterase) (A. baumannii AB5075 [2]; H vs Cont, 4h): 0.2411
log2FC, gene ABUW_RS17575 (acyl-CoA thioesterase) (A. baumannii AB5075 [2]; H vs Cont, 4h): -2.464
4h_1h logFC (Differential gene expression for all genes), Geneid ABUW_RS00005 (A. baumannii AB5075 [2]; H): -0.3521
4h_1h logFC (Differential gene expression for all genes), Geneid ABUW_RS00010 (A. baumannii AB5075 [2]; H): 0.7488
4h_1h logFC (Differential gene expression for all genes), Geneid ABUW_RS00015 (A. baumannii AB5075 [2]; H): -1.211
4h_1h logFC (Differential gene expression for all genes), Geneid ABUW_RS00020 (A. baumannii AB5075 [2]; H): 0.2283
logFC (Differential gene expression for all genes), Geneid ABUW_RS00005 (A. baumannii AB5075 [2]; L vs Cont, 1h): -0.03172
logFC (Differential gene expression for all genes), Geneid ABUW_RS00020 (A. baumannii AB5075 [2]; L vs Cont, 1h): 0.1157
logFC (Fold change), gene ABUW_RS00010 (A. baumannii AB5075 [2]; L vs Cont, 1h): -0.05024
logFC (Fold change), gene ABUW_RS00030 (A. baumannii AB5075 [2]; L vs Cont, 1h): -0.1351
logFC (Fold change), gene ABUW_RS00035 (A. baumannii AB5075 [2]; L vs Cont, 1h): -0.09136
logFC (Fold change), gene recF (ABUW_RS00015) (A. baumannii AB5075 [2]; L vs Cont, 1h): -0.09027
log2FC, gene ABUW_RS01945 (acyl-CoA thioesterase II) (A. baumannii AB5075 [2]; L vs Cont, 1h): 0.4895
log2FC, gene ABUW_RS02545 (acyl-CoA thioesterase) (A. baumannii AB5075 [2]; L vs Cont, 1h): 0.2839
log2FC, gene ABUW_RS05045 (acyl-CoA thioesterase) (A. baumannii AB5075 [2]; L vs Cont, 1h): -0.5862
log2FC, gene ABUW_RS17575 (acyl-CoA thioesterase) (A. baumannii AB5075 [2]; L vs Cont, 1h): 0.3237
logFC (Differential gene expression for all genes), Geneid ABUW_RS00005 (A. baumannii AB5075 [2]; L vs Cont, 4h): -0.01117
logFC (Differential gene expression for all genes), Geneid ABUW_RS00020 (A. baumannii AB5075 [2]; L vs Cont, 4h): -0.1061
logFC (Fold change), gene ABUW_RS00010 (A. baumannii AB5075 [2]; L vs Cont, 4h): 0.1057
logFC (Fold change), gene ABUW_RS00030 (A. baumannii AB5075 [2]; L vs Cont, 4h): -0.4634
logFC (Fold change), gene ABUW_RS00035 (A. baumannii AB5075 [2]; L vs Cont, 4h): 0.03384
logFC (Fold change), gene recF (ABUW_RS00015) (A. baumannii AB5075 [2]; L vs Cont, 4h): -0.08717
log2FC, gene ABUW_RS01945 (acyl-CoA thioesterase II) (A. baumannii AB5075 [2]; L vs Cont, 4h): 0.543
log2FC, gene ABUW_RS02545 (acyl-CoA thioesterase) (A. baumannii AB5075 [2]; L vs Cont, 4h): -0.1794
log2FC, gene ABUW_RS05045 (acyl-CoA thioesterase) (A. baumannii AB5075 [2]; L vs Cont, 4h): 0.3247
log2FC, gene ABUW_RS17575 (acyl-CoA thioesterase) (A. baumannii AB5075 [2]; L vs Cont, 4h): -0.8383
4h_1h logFC (Differential gene expression for all genes), Geneid ABUW_RS00005 (A. baumannii AB5075 [2]; L): -0.3028
4h_1h logFC (Differential gene expression for all genes), Geneid ABUW_RS00010 (A. baumannii AB5075 [2]; L): -0.2642
4h_1h logFC (Differential gene expression for all genes), Geneid ABUW_RS00015 (A. baumannii AB5075 [2]; L): -0.2929
4h_1h logFC (Differential gene expression for all genes), Geneid ABUW_RS00020 (A. baumannii AB5075 [2]; L): 0.3892
MTD, single replicate (Swiss mice; replicates 1-4): 6 mg/kg and 5.8 mg/kg and 5 mg/kg
average maximum tolerated dose (MTD) (Swiss mice; single IV bolus dose, n = 4): 5.3 mg/kg
